The text below walks through data of patent US20230109697A1, “COMBINED ANTI-CYTOKINE THERAPY TO REDUCE METASTATIC CANCER” (The Board of Trustees of the Leland Stanford Junior …, priority 2020, published 2023).

In one test the target is T1, CCR2 chemokine receptor (Homo sapiens, UniProt P41597).
T1 construct: endogenous in cells; host or cells: THP-1
To be noted: cited from earlier work.

Test [1] concerns non-polarized macrophages. The experiment in a line: Macrophage polarization by qPCR, MYC-HCC conditioned medium with recombinant cytokines. Format: cell-based, mouse. The conditions noted are these: recombinant cytokine added to cultured MYC-HCC cells. The method, then: FIG. 11. a. Quantification of migration of macrophages treated with MYC- or MYC/Twist1 -cells conditioned media. b. Expression of M1 marker genes in macrophages treated with conditioned media from MYC-HCC or MYC/Twist1-HCC. c. Spheroid co-culture assay of MYC/Twist1 -cells and macrophages after treatment with either CCL2 antibody or control antibody. F4/80 staining was performed to quantify number of spheroids with macrophage infiltration (*p<0.05). d. Experimental scheme- Conditioned medium of MYC-HCC cells treated with PBS or recombinant IL13 or CCL2 respectively was added to non-polarized macrophages for 48 hours. Macrophage polarization was assessed by qPCR for M2 markers (ARG1, […]) and M1 markers (IFNAR2, CCR2) (**p<0.005).
Quantitative Real-Time PCR: RNA was isolated using RNeasy plus mini kit according to the manufacturer’s instructions (Qiagen). cDNA was synthesized using SuperScript III (ThermoFisher). qPCR was performed using specific primers (Supplemental Table 1) and SYBR Green (Roche) in an Applied Biosystems Real Time PCR System (Life Technologies). Data were normalized to UBC. A minimum of 3 biological and 3 technical replicates were used for all qPCR experiments.
A general note: Quantitative PCR measures a nucleic acid by following its amplification.

The next test relates to MYC-HCC. The experiment in a line: Orthotopic MYC-HCC transplant in NSG mice treated with recombinant cytokines. The conditions noted are these: for macrophage infiltration increase: IHC staining for F4/80; for metastases (FC): single cytokine vs control, 4 weeks. Format: in vivo, mouse. The procedure:
FIG. 5 Both CCL2 and IL13 are required to promote Twist1-driven metastasis. a. Experimental scheme- Mice orthotopically transplanted with MYC-HCC cells were treated either with PBS or IL13 or CCL2 or CCL2+IL13 recombinant cytokines for 4 weeks. b. Representative histopathology of lung sections from MYC-HCC bearing mice treated with PBS or CCL2+IL13. c. Histopathology of liver ([…]) of MYC-HCC bearing mice treated with PBS or CCL2 or IL13 or CCL2+IL13 and IHC for F4/80 and MYC expression in each group. d. Quantification of number of metastatic nodules in the liver control treated or recombinant cytokine treated MYC-HCC bearing mice. (**p<0.01). e. Quantification of macrophage infiltration in liver by IHC staining for F4/80 of MYC-HCC bearing mice liver treated with PBS or CCL2 or IL13 or CCL2+IL13. f. Histopathology of lung (1X and 20X) of MYC-HCC bearing mice treated with PBS or CCL2 or IL13 or CCL2+IL13 and IHC for F4/80 and MYC expression in each group. g. Quantification of number of metastatic nodules in the lung of control treated or recombinant cytokine treated MYC-HCC bearing mice. (**p<0.01). h. Quantification of macrophage infiltration in lung by IHC staining for F4/80 of MYC-HCC bearing mice liver treated with PBS or CCL2 or IL13 or CCL2+IL13.
Orthotopic transplantation assay: An orthotopic mouse model was established by transplanting mouse MYC- or MYC/Twist1-HCC tumors (1 mm^3) under the liver capsule of NOD/Scid/Gamma (NSG) recipient mice. Bioluminescent (BLI) and MRI scans monitoring are used to monitor tumor engraftment and growth. Mice are euthanized once predetermined specific endpoints are met or based on morbidity whichever occurs first.
in vivo treatment mouse models: For antibody treatment, mice were injected i.p. with isotype control IgG or anti-CCL2 (BioXcell), -IL13 and -IL4 (Genentech) antibody (10 mg/kg body weight three times per week). For recombinant cytokines treatment, mice were injected i.p. three times per week with PBS or CCL2 (Peprotech, 500 ng/mouse), IL13 and IL4 (Peprotech, 250 ng/mouse). For clodronate liposomes (CL) treatment, CL or control liposomes were administered i.p. at 6.5 µl/g body weight 3 times per week to NSGs mice. CL and control treatments were administered to NSG mice previously injected i.v. with 0.5×10^6 MYC/twist1-HCC cells or orthotopically transplanted with MYC/Twist1-HCC tumors. Experimental and control mice were killed 4 weeks after tumor were transplanted. Primary tumors and lung metastases were collected for H&E staining and IHC.

T1 sequence (P41597 whole entry): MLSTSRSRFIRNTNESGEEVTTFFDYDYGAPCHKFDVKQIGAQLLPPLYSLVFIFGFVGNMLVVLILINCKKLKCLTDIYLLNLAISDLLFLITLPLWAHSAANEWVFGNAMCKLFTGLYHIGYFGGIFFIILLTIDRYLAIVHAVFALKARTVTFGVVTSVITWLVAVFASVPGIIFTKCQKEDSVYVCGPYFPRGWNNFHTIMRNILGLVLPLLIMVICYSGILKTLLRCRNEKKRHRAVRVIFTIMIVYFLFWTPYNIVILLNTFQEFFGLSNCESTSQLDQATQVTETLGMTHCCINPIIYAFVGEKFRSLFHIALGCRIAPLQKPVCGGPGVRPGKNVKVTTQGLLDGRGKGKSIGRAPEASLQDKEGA

Consider `CC(C)(C)N1CCN[C@@H](C(=O)N2CCN(C(=O)Nc3ccc(Cl)c(F)c3)CC2)C1` [AZD2423], for which the IC50 (as a rule, the concentration at which inhibition is half-maximal) at CCR2 chemokine receptor (THP-1 cell line, pre-clinical studies, read-out: IC50, inhibition of MCP-1 induced calcium mobilization and chemotaxis) was 4 nM. The “selectivity for CCR2” value on CCR2 chemokine receptor is given as above 500 fold.
With “CCL2: recombinant cytokine CCL2 (Peprotech)”, in test [1], the M2 marker expression result is “not”. In the test with MYC-HCC, the macrophage infiltration increase was 1.8 fold and the “metastases (FC)” value was 3 FC.
The corresponding values for “IL13: recombinant cytokine IL13 (Peprotech)” are “increased M2 marker expression”, “did not increase macrophage infiltration” and 1 FC.

B1: recombinant IL4: recombinant cytokine IL4 (Peprotech), control (protein, UniProt P05112 25-153, looked up)
Interleukin-4: HKCDITLQEIIKTLNSLTEQKTLCTELTVTDIFAASKNTTEKETFCRAATVLRQFYSHHEKDTRCLGATAQQFHRHKQLIRFLKRLDRNLWGLAGLNSCPVKEANQSTLENFLERLKTIMREKYSKCSS
As to B1, the macrophage infiltration increase entry in the test with MYC-HCC was “did not elicit macrophage recruitment”. Moreover, in the test on MYC-HCC (mouse, in vivo), the “effect on metastasis” value is listed as “did not elicit macrophage recruitment or increase metastasis”.
